Among the data in publication PMC6237161, “Synthesis, preliminarily biological evaluation and molecular docking study of new Olaparib analogues as multifunctional PARP-1 and cholinesterase inhibitors” (Journal of Enzyme Inhibition and Medicinal Chemistry, 2018) are IC50, inhibition and EC50 values, retold here.

Experiment [1] concerns the target T1, AChE from electric eel (EeAChE) (Electrophorus electricus, UniProt O42275).
T1 construct: purchased Sigma-Aldrich
The experiment is described as follows: biochemical. As to the method: (§1) The test compounds were dissolved in a minimum volume of DMSO (1%) and were diluted using sodium phosphate buffer (0.1 M, pH 7.4). A reaction mixture containing 20 μL sodium phosphate buffer, 100 μL DTMB (1 mM) and 40 μL AChE (0.2 U/Ml)/BChE (0.3 U/mL) was incubated with 20 μL of various concentrations of test compounds at 37 °C for 15 min followed by the addition of the substrate (20 μL) acetylthiocholine iodide (1 mM) or S-butyrylthiocholine iodide (1 mM) and incubation for another 3 min. […] The inhibition per cent was calculated by the following expression: (1-Ai/Ac) × 100, where Ai and Ac were the absorbance obtained for AChE/BChE in the presence and absence of inhibitors, respectively. […]

In experiment [2] the target is T2, BChE from equine serum (eqBChE) (Equus caballus, UniProt P81908).
T2 construct: butyrylcholinesterase (eqBChE, from equine serum); purchased Sigma-Aldrich; host or cells: equine serum
T2 sequence (P81908 whole entry): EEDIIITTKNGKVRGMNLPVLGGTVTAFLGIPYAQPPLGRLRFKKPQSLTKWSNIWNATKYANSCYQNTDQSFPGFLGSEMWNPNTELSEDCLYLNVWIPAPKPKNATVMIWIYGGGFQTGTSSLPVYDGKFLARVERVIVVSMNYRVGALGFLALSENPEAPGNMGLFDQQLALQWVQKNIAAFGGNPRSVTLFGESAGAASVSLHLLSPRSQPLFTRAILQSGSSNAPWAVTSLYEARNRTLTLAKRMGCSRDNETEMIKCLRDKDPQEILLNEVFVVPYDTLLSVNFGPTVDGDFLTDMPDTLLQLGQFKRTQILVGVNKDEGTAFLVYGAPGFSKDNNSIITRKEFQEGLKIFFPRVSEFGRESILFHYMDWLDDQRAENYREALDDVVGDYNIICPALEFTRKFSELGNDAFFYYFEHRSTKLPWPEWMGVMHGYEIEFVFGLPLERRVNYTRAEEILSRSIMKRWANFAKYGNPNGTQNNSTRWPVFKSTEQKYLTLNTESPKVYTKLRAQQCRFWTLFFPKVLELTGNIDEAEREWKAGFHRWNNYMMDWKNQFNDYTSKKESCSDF
The experiment in a line: biochemical. As to the method:
as §1

The next experiment has as its target T3, PARP-1 enzyme (Homo sapiens, UniProt P09874).
T3 construct: purchased Trevigen 4690–096-K
The experiment in a line: biochemical. The settings on record: mean ± SD, n=3; for inhibition at 0.5 µM: PARP-1, measured at the conc. of 0.5 μM, read-out: Inhibition rate (%). As to the method: Olaparib was used as positive control. […] Then, the standard curve was drawn and the inhibition rate of each test compound was calculated.

Experiment [3] has as its system breast cancer cell line MDA-MB-436. The experiment in a line: MTT assay for cell growth inhibition. It counts as cell-based. Conditions: Homo sapiens, read-out: EC50 (μM) MDA-MB-436 cell inhibitory activity. The protocol: The anti-proliferative activities of synthesized compounds were assessed against breast cancer cell line MDA-MB-436 by the 3-(4, 5-Dimethylthiazol-2-yl)-2,5-diphenyltetrazolium bromide (MTT) assay. The MDA-MB-436 cell was purchased from Chinese Academy of Sciences. […]. After treated with compounds for 72 h, cells were incubated with 20 μL of 5 mg/mL MTT for 4 h. The culture medium was removed, and 150 μL DMSO was added to dissolve the formazan crystals. Wells containing only media were used for background correction. The optical density was measured spectrophotometrically at 490 nm. EC50 values were calculated using GraphPad Prism 6 software. Data were expressed as mean ± SEM.

The mark [4] stands for this setting: MDA-MB-436, MTT, incubated for 72 h, mean ± SD, n=3, concentration required to reduce cell proliferation by 50%.
The mark [5] stands for this setting: AChE from electric eel, mean ± SD, n=3, read-out: IC50 (μM) AChE.
Where [6] appears, read: BChE from equine serum, mean ± SD, n=3, read-out: IC50 (μM) BChE.

Read-outs that look alike come from different tables or passages of the source.

T3 sequence (P09874 whole entry): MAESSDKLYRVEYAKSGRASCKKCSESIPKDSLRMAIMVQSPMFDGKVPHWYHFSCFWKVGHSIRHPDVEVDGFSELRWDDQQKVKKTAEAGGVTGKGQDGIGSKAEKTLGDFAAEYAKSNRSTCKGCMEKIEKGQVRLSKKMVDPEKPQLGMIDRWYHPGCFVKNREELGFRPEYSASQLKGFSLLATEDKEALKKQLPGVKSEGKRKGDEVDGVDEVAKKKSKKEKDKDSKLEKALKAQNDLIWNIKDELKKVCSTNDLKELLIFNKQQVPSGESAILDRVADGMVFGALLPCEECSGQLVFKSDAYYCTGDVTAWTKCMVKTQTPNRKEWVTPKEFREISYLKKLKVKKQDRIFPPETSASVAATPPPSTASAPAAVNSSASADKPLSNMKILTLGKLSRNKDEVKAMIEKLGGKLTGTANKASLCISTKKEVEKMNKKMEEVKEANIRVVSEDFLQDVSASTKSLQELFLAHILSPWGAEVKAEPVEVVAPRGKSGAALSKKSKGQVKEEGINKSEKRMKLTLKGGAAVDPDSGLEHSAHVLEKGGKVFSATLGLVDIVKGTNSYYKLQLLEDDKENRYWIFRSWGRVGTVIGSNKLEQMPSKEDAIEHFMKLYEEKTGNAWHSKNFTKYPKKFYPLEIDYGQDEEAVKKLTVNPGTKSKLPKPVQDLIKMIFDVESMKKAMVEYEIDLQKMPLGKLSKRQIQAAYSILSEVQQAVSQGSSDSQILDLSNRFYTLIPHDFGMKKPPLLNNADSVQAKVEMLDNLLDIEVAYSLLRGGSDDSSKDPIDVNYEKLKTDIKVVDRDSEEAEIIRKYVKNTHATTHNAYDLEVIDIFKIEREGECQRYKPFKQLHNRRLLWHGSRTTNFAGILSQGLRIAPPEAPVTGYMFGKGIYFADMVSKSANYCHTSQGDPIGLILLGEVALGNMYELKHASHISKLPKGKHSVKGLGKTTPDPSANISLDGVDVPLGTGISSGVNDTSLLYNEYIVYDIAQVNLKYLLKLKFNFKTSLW
T1 sequence (O42275 24-633): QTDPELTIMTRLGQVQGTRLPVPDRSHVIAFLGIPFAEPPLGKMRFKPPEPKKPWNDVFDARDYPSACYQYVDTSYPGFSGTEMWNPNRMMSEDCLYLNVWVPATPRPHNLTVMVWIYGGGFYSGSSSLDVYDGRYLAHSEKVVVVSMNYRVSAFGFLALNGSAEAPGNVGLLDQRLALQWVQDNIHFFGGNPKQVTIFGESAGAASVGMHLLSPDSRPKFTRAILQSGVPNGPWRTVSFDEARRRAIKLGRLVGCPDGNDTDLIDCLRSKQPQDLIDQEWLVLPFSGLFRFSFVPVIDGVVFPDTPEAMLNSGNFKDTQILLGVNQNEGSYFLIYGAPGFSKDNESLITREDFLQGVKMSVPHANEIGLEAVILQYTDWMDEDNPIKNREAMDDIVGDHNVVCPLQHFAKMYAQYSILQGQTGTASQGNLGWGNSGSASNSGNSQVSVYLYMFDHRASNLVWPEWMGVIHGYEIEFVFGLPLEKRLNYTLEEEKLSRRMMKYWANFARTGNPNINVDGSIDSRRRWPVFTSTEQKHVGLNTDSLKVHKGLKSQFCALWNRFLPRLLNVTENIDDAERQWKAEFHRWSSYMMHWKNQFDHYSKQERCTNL

Regarding `CN(C)C(=O)Oc1cccc([N+](C)(C)C)c1` [Neostigmine, reference compound], the results for the concentration for half-maximal inhibition (IC50) in experiment [1] and in experiment [2] were 0.04 ± 0.01 µM and 12 ± 0.45 µM, respectively.
With `COc1ccc(/C=C/C(=O)N2CCN(C(=O)c3cc(Cc4n[nH]c(=O)c5ccccc45)ccc3F)CC2)cc1OC` [5b, (E)-4-{[3-[4–(3-(3,4-dimethoxyphenyl)acryloyl)piperazine-1-carbonyl]-4-fluorophenyl]methyl}-2H-phthalazin-1-one], the inhibition (as a rule, the change of the read-out against control, counted positive when it falls) at 0.5 µM at PARP-1 enzyme came out at 77.2 ± 3.89%. In addition, in experiment [3] (setting [4]), the EC50 (usually the concentration that produces a half-maximal response) is 41.2 ± 1.95 µM. Besides, the IC50 (as a rule, the concentration that inhibits the measured activity by half) stood at 45.2 ± 1.38 µM in experiment [1] (setting [5]) and 17.8 ± 0.72 µM in experiment [2] (setting [6]).
On the same counts, the results for `COc1ccccc1/C=C/C(=O)N1CCN(C(=O)c2cc(Cc3n[nH]c(=O)c4ccccc34)ccc2F)CC1` [5e, (E)-4-{[3-[4-(3-(2-methoxyphenyl)acryloyl)piperazine-1-carbonyl]-4-fluorophenyl]methyl}-2H-phthalazin-1-one] are 62.6 ± 3.65%, 44.2 ± 1.95 µM, 56.9 ± 4.3 µM and 26.4 ± 1.93 µM.
On the same counts, the results for `Cc1ccc(/C=C/C(=O)N2CCN(C(=O)c3cc(Cc4n[nH]c(=O)c5ccccc45)ccc3F)CC2)cc1` [5d, (E)-4-{[3-[4-(3-(4-methylphenyl)acryloyl)piperazine-1-carbonyl]-4-fluorophenyl]methyl} -2H-phthalazin-1-one] are 64.2 ± 4.59%, 35.1 ± 3.42 µM, 72 ± 3.84 µM and 27.8 ± 0.87 µM.
Take `O=C(/C=C/c1cccc([N+](=O)[O-])c1)N1CCN(C(=O)c2cc(Cc3n[nH]c(=O)c4ccccc34)ccc2F)CC1` [5l, (E)-4-{[3-[4–(3-(3-nitrophenyl)acryloyl)piperazine-1-carbonyl]-4-fluorophenyl]methyl} -2H -phthalazin-1-one]: the inhibition at 0.5 µM on PARP-1 enzyme is 95.7 ± 4.35%. Moreover, the IC50 at PARP-1 enzyme was 16.1 ± 1.25 nM; in experiment [1] (setting [5]), 24.6 ± 1.1 µM; in experiment [2] (setting [6]), 9.16 ± 0.91 µM. Further, the EC50 in experiment [3] (setting [4]) came to 11.6 ± 2.15 µM.
`O=C(/C=C/c1ccc(Cl)cc1)N1CCN(C(=O)c2cc(Cc3n[nH]c(=O)c4ccccc34)ccc2F)CC1` [5j, (E)-4-{[3-[4–(3-(4-chlorophenyl)acryloyl)piperazine-1-carbonyl]-4-fluorophenyl]methyl} -2H -phthalazin-1-one]: the inhibition at 0.5 µM on PARP-1 enzyme came to 75.5 ± 4.54%. In experiment [3] (setting [4]), the concentration giving a half-maximal response (EC50) amounted to 45.2 ± 1.68 µM. Further, the results for the IC50 in experiment [1] (setting [5]) and in experiment [2] (setting [6]) were 86.5 ± 5.12 µM and 37.1 ± 2.37 µM, respectively.
On the same counts, the results for `COc1ccc(OC)c(/C=C/C(=O)N2CCN(C(=O)c3cc(Cc4n[nH]c(=O)c5ccccc45)ccc3F)CC2)c1` [5f, (E)-4-{[3-[4–(3-(2,5-dimethoxyphenyl)acryloyl)piperazine-1-carbonyl]-4-fluorophenyl]methyl} -2H-phthalazin-1-one] are 75.6 ± 3.61%, 30.2 ± 3.25 µM, 76.9 ± 4.13 µM and 35.7 ± 2.98 µM.
On to `O=C(/C=C/c1ccc([N+](=O)[O-])cc1)N1CCN(C(=O)c2cc(Cc3n[nH]c(=O)c4ccccc34)ccc2F)CC1` [5m, (E)-4-{[3-[4–(3-(4-nitrophenyl)acryloyl)piperazine-1-carbonyl]-4-fluorophenyl]methyl} -2H -phthalazin-1-one], for which the inhibition at 0.5 µM at PARP-1 enzyme came out at 93.2 ± 5.28%. Moreover, the IC50 on PARP-1 enzyme was found to be 37.9 ± 1.89 nM; in experiment [1] (setting [5]) it was 12.2 ± 0.49 µM; in experiment [2] (setting [6]), 5.93 ± 0.19 µM. Further, in experiment [3] (setting [4]), the EC50 is 14 ± 1.28 µM.
As to `O=C(/C=C/c1ccc(Br)cc1)N1CCN(C(=O)c2cc(Cc3n[nH]c(=O)c4ccccc34)ccc2F)CC1` [5k, (E)-4-{[3-[4–(3-(4-bromophenyl)acryloyl)piperazine-1-carbonyl]-4-fluorophenyl]methyl} -2H -phthalazin-1-one], at PARP-1 enzyme, the inhibition at 0.5 µM was determined as 43.2 ± 6.54%. In addition, the concentration for a half-maximal effect (EC50) in experiment [3] (setting [4]) was determined as 112 ± 5.24 µM. Besides, the values for the IC50 in experiment [1] (setting [5]) and in experiment [2] (setting [6]) were 80.7 ± 4.87 µM and 45.8 ± 3.76 µM, respectively.
For `COc1ccc(/C=C/C(=O)N2CCN(C(=O)c3cc(Cc4n[nH]c(=O)c5ccccc45)ccc3F)CC2)cc1` [5c, (E)-4-{[3-[4–(3-(4-methoxyphenyl)acryloyl)piperazine-1-carbonyl]-4-fluorophenyl]methyl} -2H-phthalazin-1-one], the inhibition at 0.5 µM at PARP-1 enzyme was determined as 89.2 ± 10.6%. Further, the 50% inhibitory concentration (IC50) against PARP-1 enzyme was determined as 144 ± 5.26 nM; in experiment [1] (setting [5]), 55.8 ± 0.6 µM; in experiment [2] (setting [6]) it was 179 ± 5.89 µM. In experiment [3] (setting [4]), the 50% effective concentration (EC50) turned out to be 14.2 ± 3.16 µM.
Take `O=C(c1cc(Cc2n[nH]c(=O)c3ccccc23)ccc1F)N1CCN(C(=O)C2CC2)CC1` [Olaparib]: the EC50 in experiment [3] (MDA-MB-436, 72 h) is 8.63 ± 1.25 µM. The IC50 in experiment [1] (setting [5]) was 50.95 ± 0.46 µM; in experiment [2] (setting [6]), 34.4 ± 0.64 µM.
Take `O=C(/C=C/c1ccccc1)N1CCN(C(=O)c2cc(Cc3n[nH]c(=O)c4ccccc34)ccc2F)CC1` [5a, (E)-4-{[3-[4-(3-phenylacryloyl)piperazine-1-carbonyl]-4-fluorophenyl]methyl}-2H-phthalazin-1-one]: the inhibition at 0.5 µM at PARP-1 enzyme worked out at 75.2 ± 4.84%. In experiment [3] (setting [4]), the EC50 was determined as 38.2 ± 2.15 µM. Moreover, the IC50 in experiment [1] (setting [5]) was found to be 52.9 ± 3.02 µM; in experiment [2] (setting [6]) it was 22.4 ± 1.19 µM.
With `O=C(/C=C/c1cccc(F)c1)N1CCN(C(=O)c2cc(Cc3n[nH]c(=O)c4ccccc34)ccc2F)CC1` [5i, (E)-4-{[3-[4–(3-(3-fluorophenyl)acryloyl)piperazine-1-carbonyl]-4-fluorophenyl]methyl} -2H -phthalazin-1-one], the inhibition at 0.5 µM on PARP-1 enzyme stood at 88.2 ± 5.24%. In addition, the half-inhibitory concentration (IC50) against PARP-1 enzyme came out at 267 ± 9.32 nM; in experiment [1] (setting [5]), 110 ± 9.18 µM; in experiment [2] (setting [6]) it was 33.4 ± 4.14 µM. In addition, the EC50 in experiment [3] (setting [4]) came to 14.2 ± 5.21 µM.
Consider `COc1cc(/C=C/C(=O)N2CCN(C(=O)c3cc(Cc4n[nH]c(=O)c5ccccc45)ccc3F)CC2)cc(OC)c1OC` [5n, (E)-4-{[3-[4–(3-(3,4,5-trimethoxyphenyl)acryloyl)piperazine-1-carbonyl]-4-fluorophenyl]methyl} -2H -phthalazin-1-one], for which the inhibition at 0.5 µM on PARP-1 enzyme is 66 ± 4.82%. For the same compound, the EC50 in experiment [3] (setting [4]) worked out at 31.2 ± 4.12 µM. In addition, the values for the IC50 in experiment [1] (setting [5]) and in experiment [2] (setting [6]) were 99.1 ± 2.21 µM and 65.2 ± 1.08 µM, respectively.
On the same counts, the results for `O=C(/C=C/c1ccco1)N1CCN(C(=O)c2cc(Cc3n[nH]c(=O)c4ccccc34)ccc2F)CC1` [5o, (E)-4-{[3-[4-(3-(furan-2-yl)acryloyl)piperazine-1-carbonyl]-4-fluorophenyl]methyl} -2H -phthalazin-1-one] are 65.2 ± 5.98%, 32.2 ± 3.58 µM, 114 ± 14.9 µM and 77.6 ± 9.06 µM.
As for `O=C(/C=C/c1ccc(F)cc1)N1CCN(C(=O)c2cc(Cc3n[nH]c(=O)c4ccccc34)ccc2F)CC1` [5g, (E)-4-{[3-[4–(3-(4-fluorophenyl)acryloyl)piperazine-1-carbonyl]-4-fluorophenyl]methyl} -2H -phthalazin-1-one], the inhibition at 0.5 µM at PARP-1 enzyme was 85.6 ± 3.69%. The 50% inhibitory concentration (IC50) was found to be 397 ± 7.01 nM against PARP-1 enzyme, 173 ± 30 µM in experiment [1] (setting [5]) and 105 ± 12.5 µM in experiment [2] (setting [6]). The concentration for a half-maximal effect (EC50) in experiment [3] (setting [4]) was found to be 13 ± 2.14 µM.
`O=C(/C=C/c1ccc(C(F)(F)F)cc1)N1CCN(C(=O)c2cc(Cc3n[nH]c(=O)c4ccccc34)ccc2F)CC1` [5h, (E)-4-{[3-[4–(3-(4-trifluoromethylphenyl)acryloyl)piperazine-1-carbonyl]-4-fluorophenyl]methyl} -2H -phthalazin-1-one]: the inhibition at 0.5 µM at PARP-1 enzyme is 89.5 ± 12.6%. Besides, the IC50 against PARP-1 enzyme worked out at 295 ± 8.25 nM; in experiment [1] (setting [5]), 136 ± 12.5 µM; in experiment [2] (setting [6]), 56.8 ± 4.36 µM. Also, the 50% effective concentration (EC50) in experiment [3] (setting [4]) was 14.8 ± 1.42 µM.
